Laboratory results published in US10738068B2, “Organic/inorganic hybrid nanoparticulates made from iron carboxylates” (CENTRE NATIONAL DE LA RECHERCHE SCIENTIFIQUE—CNRS, priority 2007, dated 2020).
In brackets after ≈: the same amount, converted by molar mass. Read-outs that look alike come from different tables or passages of the source.

Columns and labels:
[1] = cited from earlier work
[2] = Solubility of busulfan in various solvents; format: physicochemical
Source text: The solvents chosen for the impregnation are those in which busulfan has appreciable solubility (acetone, acetonitrile, chloroform, dichloromethane, dimethyl carbonate) (Table 18).

For `Nc1ccn([C@@H]2O[C@H](CO)[C@@H](O)C2(F)F)c(=O)n1` [Gemcitabine], the “Solubility in water” value [1] is given as “water soluble”.

In the case of `CC(=O)O[C@H]1C(=O)[C@@]2(C)[C@H]([C@H](OC(=O)c3ccccc3)[C@]3(O)C[C@H](OC(=O)[C@H](O)[C@@H](NC(=O)c4ccccc4)c4ccccc4)C(C)=C1C3(C)C)[C@]1(OC(C)=O)CO[C@@H]1C[C@@H]2O` [Paclitaxel], the “Solubility in ethanol and in DMSO” value ([1]; ethanol, DMSO) is listed as “about 50 g/L”.

For `NC(N)=O` [Urea], the Solubility in water ([1]; 20° C.) is given as 1080 mg/mL (≈ 18000 mM).

In the case of `CS(=O)(=O)OCCCCOS(C)(=O)=O` [busulfan, 1,4-butanediol dimethylsulfonate], the Busulfan solubility ([2]; Chloroform) is reported as 8 mg/mL, the Busulfan solubility ([2]; Ethanol) is reported as <<<4 mg/ml and the Busulfan solubility ([2]; Ether) is reported as <<<4 mg/ml. The Busulfan solubility ([2]; Hexane) was <<<4 mg/ml, the Busulfan solubility ([2]; Methanol) was <<<4 mg/ml and the Busulfan solubility ([2]; Tetrahydrofuran) was ~5 mg/mL. The Busulfan solubility ([2]; Toluene) was ~4 mg/mL.
